Assay results as given in patent US11844801B2, “Oral compositions of MK2 pathway inhibitor for treatment of immune conditions” (priority 2020, dated 2023).
Several values for one entry are separate records, joined by “and”; a condition that tells them apart may be missing. Equal entries are not always repeated. Where two headings read alike, the source gives them in different places. Marks after values point to notes of the source that are not given here.

Assay: Phase 1 SAD/MAD pharmacokinetics of oral ATI-450 in healthy subjects (incl. 80/120 mg BID extension)
Type: in vivo, human
Settings: for Cmax: read-out: Cmax; for concentration at 2 day: day 2; for concentration at 3 day: day 3; for concentration at 4 day: day 4; for concentration at 5 day: day 5; for concentration at 6 day: day 6; for Vd/F: read-out: Vss/F
Experimental: Study Design. […] Single ascending dose (SAD) cohorts. […] Multiple ascending dose (MAD) cohorts. […] Blood Sampling and Bioanalysis. Two-milliliter blood samples were collected for PK analysis. […] The lower limit of quantification was 0.500 ng/mL. Pharmacokinetics. […] Bioanalysis Assay of ATI-450. Sample processing was performed by protein precipitation using a 50.0-μL sample volume. […] A triple quadrupole 6500 mass spectrometer equipped with a turbo-ion spray source was used for detection in positive ion mode. […] A linear calibration curve ranging from 0.500 to 500 ng/mL with a 1/x^2 weighting factor was used. The method was minimally required to have intra- and inter-day precision (coefficients of variation) for pooled plasma quality control samples of ≤15% except at the lower limit of quantitation, where ≤20% was acceptable. The calculated concentrations (both inter- and intra-day) were required to be within 15% of nominal at all concentrations except the lower limit of quantitation, where up to 20% deviation from nominal was acceptable. The precision and accuracy of the method exceeded these minimum requirements for assay validation.

[1] = both sexes, human, plasma, oral, 80 mg, 80 mg BID, read-out: Ctrough
[2] = both sexes, human, plasma, oral, 80 mg, 80 mg BID, day 7
[3] = both sexes, human, plasma, oral, 120 mg, 120 mg BID, day 1
[4] = both sexes, human, plasma, oral, 120 mg, 120 mg BID, read-out: Ctrough
[5] = both sexes, human, plasma, oral, 120 mg, 120 mg BID, day 7
[6] = both sexes, human, plasma, po, 10 mg, single oral dose 10 mg, fasted
[7] = both sexes, human, plasma, po, 30 mg, single oral dose 30 mg, fasted
[8] = both sexes, human, plasma, po, 50 mg, single oral dose 50 mg, fasted
[9] = both sexes, human, plasma, po, 100 mg, single oral dose 100 mg, fasted
[10] = both sexes, human, plasma, po, 100 mg, single oral dose 100 mg, fed (high-fat, high-calorie breakfast)
[11] = single oral dose 100 mg, fasted

For `Cc1cnc(-c2ccnc(C(C)(C)O)n2)cc1-n1c(C)cc(OCc2ncc(F)cc2F)c(Cl)c1=O` (single isomer, unassigned) [ATI-450, 3-chloro-4-((3,5-difluoropyridin-2-yl)methoxy)-2′-(2-(2-hydroxypropan-2-yl)pyrimidin-4-yl)-5′,6-dimethyl-2H-[1,4′-bipyridin]-2-one], the Cmax (both sexes, human, plasma, oral, 80 mg, 80 mg BID, day 1) was 0.258 ± 0.0838 µg/mL, the Tmax (both sexes, human, plasma, oral, 80 mg, 80 mg BID, day 1, read-out: Tmax, median (min, max)) was 2 h and the concentration at 2 day [1] was 0.176 ± 0.0675 µg/mL. It also gave a concentration at 3 day [1] of 0.149 ± 0.054 µg/mL, a concentration at 4 day [1] of 0.148 ± 0.0599 µg/mL and a concentration at 5 day [1] of 0.145 ± 0.0783 µg/mL. For the same compound, the concentration at 6 day [1] was 0.144 ± 0.0649 µg/mL, the AUC [2] was 2.55 ± 0.73 µg·h/mL and the AUC(0-t) (both sexes, human, plasma, oral, 80 mg, 80 mg BID, day 7, read-out: AUC0-24, total daily exposure calculated as AUC0-12 × 2) was 5.1 µg·h/mL. The AUC(0-t) (both sexes, human, plasma, oral, 80 mg, 80 mg BID, day 7, read-out: AUC0-t) was 4.03 ± 1.15 µg·h/mL, the concentration at 7 day (both sexes, human, plasma, oral, 80 mg, 80 mg BID, day 7, read-out: Cavg) was 0.212 ± 0.0608 µg/mL and the Cmax [2] was 0.389 µg/mL. It also gave a concentration at 7 day (both sexes, human, plasma, oral, 80 mg, 80 mg BID, day 7, read-out: Cmin) of 0.101 ± 0.0398 µg/mL, a Tmax (both sexes, human, plasma, oral, 80 mg, 80 mg BID, day 7, read-out: Tmax, median (min, max)) of 2 h and a half-life (both sexes, human, plasma, oral, 80 mg, 80 mg BID, day 7, read-out: t1/2 (converted)) of 14.3 ± 5.3 h. The concentration at 7 day (both sexes, human, plasma, oral, 120 mg BID, day 7, read-out: Ctrough) was 0.156 µg/mL, the AUC [3] was 2.32 ± 0.383 µg·h/mL and the AUC(0-t) (both sexes, human, plasma, oral, 120 mg, 120 mg BID, day 1, read-out: AUC0-t) was 2.31 ± 0.38 µg·h/mL. The Cmax [3] was 0.379 ± 0.0606 µg/mL, the Tmax (both sexes, human, plasma, oral, 120 mg, 120 mg BID, day 1, read-out: Tmax, median (min, max)) was 3 h and the concentration at 2 day [4] was 0.152 ± 0.0933 µg/mL. It also gave a concentration at 3 day [4] of 0.144 ± 0.0988 µg/mL, a concentration at 4 day [4] of 0.126 ± 0.0844 µg/mL and a concentration at 5 day [4] of 0.145 ± 0.0675 µg/mL. The concentration at 6 day [4] was 0.161 ± 0.0875 µg/mL, the AUC [5] was 2.58 ± 1.03 µg·h/mL and the AUC(0-t) (both sexes, human, plasma, oral, 120 mg, 120 mg BID, day 7, read-out: AUC0-24, total daily exposure calculated as AUC0-12 × 2) was 5.16 µg·h/mL. For the same compound, the AUC(0-t) (both sexes, human, plasma, oral, 120 mg, 120 mg BID, day 7, read-out: AUC0-t) was 4.17 ± 2.09 µg·h/mL, the concentration at 7 day (both sexes, human, plasma, oral, 120 mg, 120 mg BID, day 7, read-out: Cavg) was 0.215 ± 0.0859 µg/mL and the Cmax [5] was 0.416 µg/mL. The concentration at 7 day (both sexes, human, plasma, oral, 120 mg, 120 mg BID, day 7, read-out: Cmin) was 0.0961 ± 0.0641 µg/mL, the Tmax (both sexes, human, plasma, oral, 120 mg, 120 mg BID, day 7, read-out: Tmax, median (min, max)) was 2 h and the half-life (both sexes, human, plasma, oral, 120 mg, 120 mg BID, day 7, read-out: t1/2 (converted)) was 8.7 ± 2.4 h. For the same compound, the half-life (both sexes, human, plasma, oral, MAD cohorts 10-50 mg BID, day 7, read-out: terminal half-life (mean t1/2), range over cohorts) was 9 to 12 h, the half-life (both sexes, human, plasma, oral, SAD cohorts, fasted, read-out: mean t1/2, range across dose cohorts) was 9 to 11 h and the Tmax (both sexes, human, plasma, oral, SAD cohorts, fasted, read-out: median Tmax, range across dose cohorts) was 2 to 4 h. For the same compound, the Vd/F (both sexes, human, plasma, oral, 50 mg BID, day 7) was 586 ± 163 L, the Vd/F (both sexes, human, plasma, oral, 80 mg BID, day 7) was 690 ± 294 L and the Vd/F (both sexes, human, plasma, oral, 120 mg BID, day 7) was 621 ± 183 L. The AUC(0-inf) [6] was 0.285 µg·h/mL, the Cmax [6] was 0.0394 µg/mL and the Tmax (both sexes, human, plasma, po, 10 mg, single oral dose 10 mg, fasted, read-out: Tmax, median (min, max)) was 2 h. The half-life (both sexes, human, plasma, po, 10 mg, single oral dose 10 mg, fasted, read-out: t1/2 (converted)) was 8.5 h, the AUC(0-inf) [7] was 1.1 µg·h/mL and the Cmax [7] was 0.122 µg/mL. It also gave a Tmax (both sexes, human, plasma, po, 30 mg, single oral dose 30 mg, fasted, read-out: Tmax, median (min, max)) of 4 h, a half-life (both sexes, human, plasma, po, 30 mg, single oral dose 30 mg, fasted, read-out: t1/2 (converted)) of 10.7 h and an AUC(0-inf) [8] of 1.46 µg·h/mL. For the same compound, the Cmax [8] was 0.161 µg/mL, the Tmax (both sexes, human, plasma, po, 50 mg, single oral dose 50 mg, fasted, read-out: Tmax, median (min, max)) was 3 h and the half-life (both sexes, human, plasma, po, 50 mg, single oral dose 50 mg, fasted, read-out: t1/2 (converted)) was 9.1 h. It also gave an AUC(0-inf) [9] of 3.65 µg·h/mL, a Cmax [9] of 0.426 µg/mL and a Tmax (both sexes, human, plasma, po, 100 mg, single oral dose 100 mg, fasted, read-out: Tmax, median (min, max)) of 2 h. It also gave a half-life (both sexes, human, plasma, po, 100 mg, single oral dose 100 mg, fasted, read-out: t1/2 (converted)) of 11.2 h, an AUC(0-inf) [10] of 4.1 µg·h/mL and a Cmax [10] of 0.371 µg/mL. It also gave a Tmax (both sexes, human, plasma, po, 100 mg, single oral dose 100 mg, fed (high-fat, high-calorie breakfast), read-out: Tmax, median (min, max)) of 6 h, a half-life (both sexes, human, plasma, po, 100 mg, single oral dose 100 mg, fed (high-fat, high-calorie breakfast), read-out: t1/2 (converted)) of 6.3 h and an AUC(0-t) (single oral dose 10 mg, fasted) of 0.2763 ± 0.0778 µg·h/mL. For the same compound, the CL/F (single oral dose 10 mg, fasted) was 37.0 ± 8.8 L/h, the “Tmax, median (min, max)” value (single oral dose 10 mg, fasted) was 2.0 (2.0-4.0) h and the Vz/F (single oral dose 10 mg, fasted) was 430.2 ± 124.0 L. For the same compound, the t1/2 (single oral dose 10 mg, fasted) was 8.5 ± 3.2 h, the AUC(0-t) (single oral dose 30 mg, fasted) was 1074.0 ± 243.5^a h*ng/mL and the CL/F (single oral dose 30 mg, fasted) was 28.4 ± 7.1^a L/h. The “Tmax, median (min, max)” value (single oral dose 30 mg, fasted) was 4.0 (2.0-4.1) h, the Vz/F (single oral dose 30 mg, fasted) was 451.4 ± 201.5^a L and the AUC(0-t) (single oral dose 50 mg, fasted) was 1.43 ± 0.254 µg·h/mL. For the same compound, the CL/F (single oral dose 50 mg, fasted) was 35.1 ± 6.3 L/h, the “Tmax, median (min, max)” value (single oral dose 50 mg, fasted) was 3.0 (2.0-4.0) h and the Vz/F (single oral dose 50 mg, fasted) was 445.0 ± 94.7 L. It also gave a t1/2 (single oral dose 50 mg, fasted) of 9.1 ± 2.4 h, an AUC(0-t) [11] of 3.4898 ± 0.4757 µg·h/mL and a CL/F [11] of 27.9 ± 4.3 L/h. The “Tmax, median (min, max)” value [11] was 2.0 (2.0, 4.0) h and 2.0 (2.0-4.0) h, the Vz/F [11] was 439.8 ± 189.7 L and the t1/2 [11] was 11.2 ± 5.8 h. For the same compound, the “Tmax, median (min, max)” value (single oral dose 100 mg, fed (high-fat, high-calorie breakfast)) was 6.0 (4.0, 12.0) h and the “steady state reached by day” value (twice-daily administration, all dose levels 10-50 mg) was ≤ 2 days.
